# From ChEMBL document CHEMBL1201862, “PubChem BioAssay data set” (2004)
#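 Each compound was tested at five concentrations against cells in 96-well plates for 48 hours. GI50 = concentration required for 50% inhibition of growth.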 Calls of active or inactive are those of the source. No stated cut-off is given here; in the data, active = GI50 up to about 1.1 µM and inactive = higher.
# Assays:
# Assay in all cases: DTP human tumour cell line panel, 48 h
# [1] = system: KM12
# [2] = system: SK-MEL-2
# [3] = system: ACHN
# [4] = system: MDA-N
# [5] = system: MCF7
# [6] = system: NCI-H522
# [7] = system: BT-549
# [8] = system: OVCAR-5
# [9] = system: NCI/ADR-RES
# [10] = system: SK-MEL-5
# [11] = system: HCT-116
# [12] = system: SF-295
# [13] = system: SF-539
# [14] = system: MDA-MB-231
# [15] = system: MDA-MB-435
# [16] = system: DLD-1
# [17] = system: DMS-273
# [18] = system: SNB-78
# [19] = system: DMS-114
SMILES,GI50 [1],GI50 [2],GI50 [3],GI50 [4],GI50 [5],GI50 [6],GI50 [7],GI50 [8],GI50 [9],GI50 [10],GI50 [11],GI50 [12],GI50 [13],GI50 [14],GI50 [15],GI50 [16],GI50 [17],GI50 [18],GI50 [19]
CC(C)c1nccn1Cc1ccc(Cl)cc1Cl,30.5 µM (inactive),74.3 µM (inactive),83 µM (inactive),38.6 µM (inactive),34.1 µM (inactive),21.2 µM (inactive),64.1 µM (inactive),27.7 µM (inactive),27 µM (inactive),12 µM (inactive),16.3 µM (inactive),14.5 µM (inactive),61.2 µM (inactive),81.5 µM (inactive),49.7 µM (inactive),,,,
Cc1ccc2oc(=O)c(-c3ccccc3)nc2c1,19.6 µM (inactive),21 µM (inactive),27.9 µM (inactive),,,15.3 µM (inactive),,39.4 µM (inactive),,30.8 µM (inactive),20.6 µM (inactive),40.5 µM (inactive),18.2 µM (inactive),,,11.7 µM (inactive),17.6 µM (inactive),,
COc1ccc(C2c3cc4c(cc3OC(N3CCOCC3)C2C)OCO4)cc1OC (centres undefined),4.46 µM (inactive),5.77 µM (inactive),10.3 µM (inactive),1.86 µM (inactive),4.97 µM (inactive),5.51 µM (inactive),7.48 µM (inactive),48.6 µM (inactive),3.61 µM (inactive),4.06 µM (inactive),4.75 µM (inactive),4.39 µM (inactive),3.89 µM (inactive),16.2 µM (inactive),2.04 µM (inactive),,,,
CCn1c(SCC(=O)N/N=C/c2ccccc2)nc2ccccc2c1=O,3.64 µM (inactive),11.7 µM (inactive),36 µM (inactive),2.54 µM (inactive),4.75 µM (inactive),3.7 µM (inactive),17.3 µM (inactive),> 52 µM (inactive),4.05 µM (inactive),7.94 µM (inactive),5.42 µM (inactive),4.7 µM (inactive),10.4 µM (inactive),14.3 µM (inactive),2.11 µM (inactive),,,,
COc1ccc2cc(CN3CCC(C4CCN(Cc5ccc6cc(OC)ccc6c5)CC4)CC3)ccc2c1,2.43 µM (inactive),4.44 µM (inactive),7.35 µM (inactive),2.04 µM (inactive),4.06 µM (inactive),2.3 µM (inactive),> 10 µM (inactive),21.8 µM (inactive),6.82 µM (inactive),1.66 µM (inactive),2.39 µM (inactive),2.99 µM (inactive),3.19 µM (inactive),2.52 µM (inactive),1.69 µM (inactive),,,,
CC12CCC3C(CCC4=CC(O)CCC43C=O)C1(O)CCC2c1ccc(=O)oc1 (centres undefined),0.0129 µM (active),0.0116 µM (active),,,0.05 µM (active),0.0015 µM (active),,0.0693 µM (active),0.0253 µM (active),0.00622 µM (active),0.05 µM (active),0.0104 µM (active),0.00385 µM (active),,,,0.00497 µM (active),0.0075 µM (active),0.0014 µM (active)
CSc1nc2c(c(=O)n1C)N=C(c1ccc(Cl)cc1)CC(c1ccccc1)N2 (centres undefined),15.7 µM (inactive),13.9 µM (inactive),19 µM (inactive),15.7 µM (inactive),14.2 µM (inactive),17.6 µM (inactive),24.9 µM (inactive),33.8 µM (inactive),17.4 µM (inactive),19.5 µM (inactive),27.2 µM (inactive),21.3 µM (inactive),17.9 µM (inactive),11.9 µM (inactive),34.4 µM (inactive),,,,
CCCc1[nH]c2ccccc2c1-c1c(CCC)[nH]c2ccccc12,16.6 µM (inactive),14.2 µM (inactive),16.9 µM (inactive),7.96 µM (inactive),4.66 µM (inactive),17.1 µM (inactive),13.9 µM (inactive),16.9 µM (inactive),10.1 µM (inactive),10.2 µM (inactive),4.6 µM (inactive),15.7 µM (inactive),8.36 µM (inactive),15.3 µM (inactive),11.9 µM (inactive),,,,
COc1cc(C=O)cc(/C=N/c2ccc(S(N)(=O)=O)cc2)c1O,27.7 µM (inactive),4.47 µM (inactive),3.82 µM (inactive),5.6 µM (inactive),> 100 µM (inactive),21.2 µM (inactive),6.73 µM (inactive),26.7 µM (inactive),10.5 µM (inactive),4.91 µM (inactive),18.2 µM (inactive),3.64 µM (inactive),2.93 µM (inactive),20.4 µM (inactive),9.2 µM (inactive),,,,
Oc1ccc(-c2nc3ccc4ccccc4c3c3c2CCCC3)c(O)c1,13.8 µM (inactive),9.08 µM (inactive),28.8 µM (inactive),17.2 µM (inactive),27.7 µM (inactive),12.1 µM (inactive),32.7 µM (inactive),20 µM (inactive),> 100 µM (inactive),9.68 µM (inactive),10.7 µM (inactive),37.2 µM (inactive),42.3 µM (inactive),12.9 µM (inactive),16.9 µM (inactive),,,,
O=C(/C=C/c1ccccc1)Oc1cccc(O)c1,19.1 µM (inactive),> 100 µM (inactive),> 100 µM (inactive),57.8 µM (inactive),38.7 µM (inactive),6.81 µM (inactive),> 100 µM (inactive),30.3 µM (inactive),42.8 µM (inactive),37.5 µM (inactive),16.4 µM (inactive),17.8 µM (inactive),> 100 µM (inactive),47.9 µM (inactive),> 100 µM (inactive),,,,
CCOC(=O)C(SCCO)C(C(=O)OCC)n1ccc(=O)[nH]c1=O (centres undefined),37 µM (inactive),33.7 µM (inactive),21.2 µM (inactive),34.8 µM (inactive),23.1 µM (inactive),3.77 µM (inactive),> 58.7 µM (inactive),22.1 µM (inactive),25.4 µM (inactive),63.5 µM (inactive),16.3 µM (inactive),> 100 µM (inactive),31.5 µM (inactive),35.8 µM (inactive),22.4 µM (inactive),,,,
CC(=O)N(C)SCC(NC(=O)C(Cc1ccccc1)NC(=O)OCc1ccccc1)C(=O)NC(Cc1ccccc1)C(=O)NC(Cc1cn(C=O)c2ccccc12)C(=O)NC(CCCCNC(=O)OCc1ccccc1)C(=O)NC(C(=O)NC(CSN(C)C(C)=O)C(=O)NO)C(C)OCc1ccccc1 (centres undefined),> 100 µM (inactive),> 100 µM (inactive),> 100 µM (inactive),> 100 µM (inactive),> 100 µM (inactive),> 100 µM (inactive),> 100 µM (inactive),> 100 µM (inactive),> 100 µM (inactive),> 100 µM (inactive),> 100 µM (inactive),> 100 µM (inactive),> 100 µM (inactive),> 100 µM (inactive),> 100 µM (inactive),,,,
Cc1nc2ccccc2cc1C[N+]12CN3CN(CN(C3)C1)C2,20.9 µM (inactive),18.6 µM (inactive),17.1 µM (inactive),21.8 µM (inactive),4.29 µM (inactive),18.9 µM (inactive),19.3 µM (inactive),23.8 µM (inactive),22.4 µM (inactive),18.4 µM (inactive),5.21 µM (inactive),22.9 µM (inactive),14.2 µM (inactive),16.4 µM (inactive),22.2 µM (inactive),,,,
CCCCCCOP(=O)(OCCCCCC)C(NC(=O)OCC)(C(F)(F)F)C(F)(F)F,39.1 µM (inactive),22.9 µM (inactive),28.8 µM (inactive),36 µM (inactive),37.2 µM (inactive),28.1 µM (inactive),22.5 µM (inactive),43.8 µM (inactive),28.8 µM (inactive),20 µM (inactive),27.4 µM (inactive),30.3 µM (inactive),36.3 µM (inactive),24.3 µM (inactive),36.6 µM (inactive),,,,
CCOC(=O)N/N=C(/N)Cc1ccccc1,> 100 µM (inactive),> 100 µM (inactive),> 100 µM (inactive),> 100 µM (inactive),> 100 µM (inactive),> 100 µM (inactive),> 100 µM (inactive),> 100 µM (inactive),> 100 µM (inactive),> 100 µM (inactive),> 100 µM (inactive),> 100 µM (inactive),> 100 µM (inactive),> 100 µM (inactive),> 100 µM (inactive),,,,
C=C(C)COc1ccc2c(c1)CCC1C2CCC2(C)C(=O)/C(=N/O)CC12 (centres undefined),2.19 µM (inactive),4.14 µM (inactive),3.12 µM (inactive),3.47 µM (inactive),2.9 µM (inactive),3.58 µM (inactive),6.41 µM (inactive),3.93 µM (inactive),4.27 µM (inactive),8.11 µM (inactive),1.52 µM (inactive),4.37 µM (inactive),12.8 µM (inactive),1.66 µM (inactive),2.27 µM (inactive),,,,
O=C1NC(=O)C(CC2CCCCCCCCCCC2=O)C(=O)N1 (centres undefined),> 100 µM (inactive),> 100 µM (inactive),> 100 µM (inactive),> 100 µM (inactive),> 100 µM (inactive),> 100 µM (inactive),> 100 µM (inactive),> 100 µM (inactive),> 100 µM (inactive),> 100 µM (inactive),> 100 µM (inactive),> 100 µM (inactive),> 100 µM (inactive),> 100 µM (inactive),> 100 µM (inactive),,,,
